According to patent US20210401708A1, “Skin Anti-Aging Composition Containing Irilin B” (PHYTO CORPORATION INC., priority 2018, published 2021):

What was measured:
[1] = test system: Collagenase isolated from mouse pancreases; experiment: Measurement of anti-collagenase activity; assay type: biochemical
Procedure: Collagenase, used in the measurement of enzyme activity, was isolated from mouse pancreases. The synthetic peptide, N-(3-[2-Furyl]acryloyl)-Leu-Gly-Pro-Ala, was used as a substrate compound for an enzymatic reaction. A solution containing 50 mM Tricine, 10 mM CaCl2.H2O, and 400 mM NaCl (pH 7.5) dissolved therein was used as a buffer solution. The synthetic substrate was dissolved to a concentration of […] in the buffer solution, and then finally diluted to 75 μM. Collagenase was dissolved to a concentration of 1 unit/ml in tertiary distilled water at 4° C. Upon the test, the collagenase diluted to a final concentration of 0.05 unit/ml in the buffer solution was used. […] In addition, the concentration of retinol (Sigma Co.), which was a positive control known as an anti-collagenase substance, was 10 μg/ml or 20 μg/ml in the test. The reaction was carried out in 96-well UV plates (Corning Co.) at room temperature for 10 minutes. The absorbance was measured at 345 nm at intervals of 1 minute using a microplate spectrophotometer (Bio-Rad). The enzyme activity was determined by obtaining the maximal slope of absorbance over time. All enzymatic reactions were repeatedly carried out three times, and expressed as average values. The anti-collagenase activity was calculated as below:
Anti-collagenase activity (%)=[(absolute value of slope in control−absolute value of slope in test sample)/absolute value of slope in control]×100 [Calculation Formula]

[2] = molecular target: T1, elastase isolated from human leukocytes (Homo sapiens, UniProt P08246); experiment: Measurement of anti-elastase activity; assay type: biochemical
T1 construct: The elastase isolated from human leukocytes were used; from tissue; host or cells: human leukocytes
T1 sequence (P08246 30-267): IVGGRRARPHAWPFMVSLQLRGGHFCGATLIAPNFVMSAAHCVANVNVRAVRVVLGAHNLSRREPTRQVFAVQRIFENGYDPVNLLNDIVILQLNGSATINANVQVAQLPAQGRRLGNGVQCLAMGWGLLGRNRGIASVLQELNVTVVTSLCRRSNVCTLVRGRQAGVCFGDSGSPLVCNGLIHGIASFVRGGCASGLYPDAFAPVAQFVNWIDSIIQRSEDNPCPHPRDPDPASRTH
Procedure: The anti-elastase activity (elastase being an elastin degradation enzyme) was tested as below. The elastase isolated from human leukocytes were used. The synthetic oligopeptide, MeOSuc-Ala-Ala-Pro-Val-pNA, was used as a substrate of an enzyme reaction. A 100 mM Tris (pH 7.5) solution was used as a buffer solution. Elastase was finally used at 0.2 mU using the buffer solution. In addition, the synthetic substrate of elastase was made into a 100 mM solution using […], and then diluted to a final concentration of 0.5 mM in the buffer solution. […] The concentration of quercetin (Sigma Co.), which was a positive control known as an anti-elastase substance, was 10 μg/ml or 20 μg/ml in the test. The reaction was carried out in 96-well UV plates (Corning Co.) at room temperature for 20 minutes. The absorbance was measured at 405 nm at intervals of 1 minute using a microplate spectrophotometer (Bio-Rad). The enzyme activity was determined by obtaining the maximal slope of absorbance over time. All enzymatic reactions were repeatedly carried out three times, and expressed as average values. The […] was calculated as below:
Anti-elastase activity (%)=[(absolute value of slope in control−absolute value of slope in test sample)/absolute value of slope in control]×100 [Calculation Formula]

[3] = test system: aquaporin 3 (AQP3); experiment: Expression level of skin moisturizing factor AQP3 in UVA-irradiated HaCaT cells (RT-PCR); assay type: cell-based, human
Procedure: (§1) In order to investigate the expression levels of aquaporin 3 (AQP3) and hyaluronic acid synthase 2 (HAS2), which are moisturizing factors involved in the migration of cell moisture, the test was performed using the human skin keratinocytes HaCaT cells (Korean Cell Line Bank). The HaCaT cells were incubated in Dulbecco's modified Eagle's medium (DEME, Gibco 1210-0038) containing 10% FBS. Cell incubation was carried out using a 5% CO2 incubator at 37° C. After the cells were treated with Irilin B and ultraviolet light (aging treatment: UVA: 5 J/cm^2), the levels of AQP3 and HAS2 expressed in the cells were measured. The expression levels were measured by extracting RNA from the HaCaT cells and performing real-time polymerase change reaction (RT-PCR). The test substance Irilin B was treated after UVA irradiation. Irilin B was in advance prepared into a 10 mg/ml stock solution by addition of DMEM. Upon the test, the cells were treated with the stock solution diluted to 1/1,000 to 1/500. […]
(§2) The gene expression test (RNA extraction and real-time polymerase chain reaction (PCR)) was performed in the following order:
(§3) i) RNA was extracted using TRIzol Reagent (Gibco, USA).
(§4) ii) The cDNA synthesis from the extracted RNA was performed using the ReverTra Ace reverse transcriptase kit (Toyobo, USA). […]

[4] = test system: hyaluronic acid synthase 2 (HAS2); experiment: Expression level of skin moisturizing factor HAS2 in UVA-irradiated HaCaT cells (RT-PCR); assay type: cell-based, human; settings: UVA 5 J/cm^2, 10, 20, 40 μg/ml, 24 hours
Procedure: as §1, §2, §3, §4

[5] = test system: Human skin keratinocytes; experiment: Keratinocyte differentiation promoting effect; assay type: cell-based; settings: for Cell differentiation promoting effect (%): vs distilled water (0%)
Procedure: Human skin keratinocytes (Korean Cell Line Bank) were seeded in the CO2 incubation flask in which DMEM containing 10% FBS was placed. After the cells were grown to a confluency of about 80%, Irilin B at different concentrations (5, 10, 20, 50, 100 μg/ml) were added to the cells, followed by incubation for 3 days. Thereafter, the cells were treated with a reduction modifier, such as sodium dodecyl sulfate (SDS) and β-mercaptoethanol, to remove proteins. After the treatment, the remaining keratinocyte layer was suspended in distilled water, and then the absorbance was measured at 310 nm to analyze the peptide concentration. The increase by each sample was compared on the basis of the negative control, distilled water (0%). In the positive control, the cells were treated with 10 nM TGF-β known as a cell differentiation factor. All the tests of keratinocyte differentiation promoting effect were repeatedly carried out three times. The absorbance at 310 nm is expressed as a mean and standard deviation, and the cell differentiation promoting effect is expressed, using the following calculation formula, as an average value (%), in Table 4.
Cell differentiation promoting effect (%)=(absorbance value at 310 nm in test sample−absorbance value at 310 nm in negative control)×100 [Calculation Formula]

[6] = both at 20 μg/ml, same conditions

Anti-collagenase activity (%) ([1]; 10 μg/ml) | Enzyme activity (Absolute value of maximal slope of absorbance over time at 345 nm) ([1]; 10 μg/ml) | Anti-collagenase activity (%) ([1]; 20 μg/ml) | Enzyme activity (Absolute value of maximal slope of absorbance over time at 345 nm) ([1]; 20 μg/ml) | Molecule | Enzyme activity (Absolute value of maximal slope of absorbance over time at 405 nm) ([2]; 10 μg/ml) | inhibition at 10 µg/mL ([2]; 10 μg/ml) | Enzyme activity (Absolute value of maximal slope of absorbance over time at 405 nm) ([2]; 20 μg/ml) | inhibition at 20 µg/mL ([2]; 20 μg/ml) | further results
49.38% | 0.41 | 62.96% | 0.30 | COc1c(O)cc2occ(-c3ccccc3O)c(=O)c2c1O [Irilin B, 5,7,2′-trihydroxy-6-methoxyisoflavone] | 0.72 | 42.9% | 0.54 | 57.1% | Anti-collagenase activity (%) ([1]; 5 μg/ml): 33.33%; Enzyme activity (Absolute value of maximal slope of absorbance over time at 345 nm) ([1]; 5 μg/ml): 0.54; anti-collagenase activity compared with retinol [1, 6]: about 2.05 fold; Enzyme activity (Absolute value of maximal slope of absorbance over time at 405 nm) ([2]; 5 μg/ml): 0.85; inhibition at 5 µg/mL ([2]; 5 μg/ml): 32.5%; anti-elastase activity compared with quercetin [2, 6]: about 1.47 fold; expression level of AQP3 after UVA irradiation (FIG. 1) ([3]; UVA 5 J/cm^2, 40 μg/ml): again increased to a level in the control irradiated without UVA; expression of AQP3 after UVA irradiation (FIG. 1) ([3]; UVA 5 J/cm^2, 10, 20, 40 μg/ml, 24 hours): restored the UVA-reduced level of AQP3 in a dose dependent manner; expression of HAS2 after UVA irradiation (FIG. 2) [4]: again restored to a level in the normal control; Cell differentiation promoting effect (%) ([5]; 10 μg/ml, 3 days): 28.2%; Cell differentiation promoting effect (%) ([5]; 20 μg/ml, 3 days): 46.7%; Cell differentiation promoting effect (%) ([5]; 50 μg/ml, 3 days): 95.3%; cell differentiation promoting effect compared with positive control (in words) ([5]; 100 μg/ml vs TGF-β 10 nM): equivalent to the cell differentiation factor TGF-β (10 nM); Cell differentiation promoting effect (%) ([5]; 100 μg/ml, 3 days): 142.4%; differentiation of keratinocytes (in words) ([5]; 5, 10, 20, 50, and 100 μg/ml): promoted the differentiation of keratinocytes
 |  |  |  | O=c1c(O)c(-c2ccc(O)c(O)c2)oc2cc(O)cc(O)c12 [Quercetin, quercetin, reference compound] | 0.88 | 30.2 ± 3.14% | 0.77 | 38.9% | 
17.28 ± 0.85% | 0.67 | 30.86% | 0.56 | CC1=C(/C=C/C(C)=C/C=C/C(C)=C/CO)C(C)(C)CCC1 [Retinol, reference compound] |  |  |  |  | 
 |  |  |  | transforming growth factor-β (TGF-β) |  |  |  |  | Cell differentiation promoting effect (%) ([5]; 10 nM): 144.7%
